In PubChem BioAssay AID330 (DTP/NCI, 2004):
Several values for one entry are separate records, joined by “and”; a condition that tells them apart may be missing. Identical values can stand only once. Toxic doses and inconclusive results are not listed.

System: P388 leukemia ip, CD2F1 mice, survival T/C
Assay: NCI In Vivo Anticancer Drug Screen. Data for tumor model P388 Leukemia (intraperitoneal) in CD2F1 (CDF1) mice
Conditions: endpoint: median survival time, higher = longer survival
How it was run: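 Mice carrying the transplanted tumor received test compound or vehicle. Survival was recorded in each group, and the value is the treated-group measurement divided by that of the vehicle-treated control group.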

## O=NN(CCCl)C(=O)NCCCl
dose: 10.8 mg/kg/injection, schedule: Q04DX003 (ip), vehicle: saline + alcohol
  T/C: 295 % of control
dose: 12.5 mg/kg/injection, schedule: Q01DX005 (ip), vehicle: saline with Tween-80
  T/C: 275 % of control and 315 % of control
dose: 15.0 mg/kg/injection, schedule: Q01DX001 (iv), vehicle: saline + alcohol
  T/C: 222 % of control
dose: 15.0 mg/kg/injection, schedule: Q01DX009 (ip), vehicle: saline
  T/C: 300 % of control
dose: 15.0 mg/kg/injection, schedule: Q04DX003 (ip), vehicle: saline + alcohol
  T/C: 336 % of control
dose: 15.0 mg/kg/injection, schedule: Q04DX003 (ip), vehicle: saline
  T/C: 355 % of control
dose: 16.0 mg/kg/injection, schedule: Q01DX001 (ip), vehicle: Klucel (hydroxypropylcellulose) (HPC)
  T/C: 210 % of control
dose: 16.0 mg/kg/injection, schedule: Q01DX001 (ip), vehicle: saline with Tween-80
  T/C: 192 % of control and 240 % of control
dose: 16.0 mg/kg/injection, schedule: Q01DX001 (ip), vehicle: suspension in saline
  T/C: 186 % of control
dose: 16.0 mg/kg/injection, schedule: Q01DX001 (ip), vehicle: water
  T/C: 429 % of control
dose: 16.0 mg/kg/injection, schedule: Q01DX001 (oral), vehicle: saline with Tween-80
  T/C: 163 % of control
dose: 16.0 mg/kg/injection, schedule: Q01DX005 (ip), vehicle: saline + alcohol
  T/C: 409 % of control
dose: 16.0 mg/kg/injection, schedule: Q01DX009 (ip), vehicle: other
  T/C: 111 % of control and 120 % of control
dose: 16.0 mg/kg/injection, schedule: Q01DX009 (ip), vehicle: saline with Tween-80
  T/C: 118 % of control
dose: 18.0 mg/kg/injection, schedule: Q04DX002 (ip), vehicle: saline + alcohol
  T/C: 250 % of control and 254 % of control
dose: 18.0 mg/kg/injection, schedule: Q04DX003 (ip), vehicle: saline + alcohol
  T/C: 419 % of control
dose: 20.0 mg/kg/injection, schedule: Q01DX001 (ip), vehicle: Klucel (hydroxypropylcellulose) (HPC)
  T/C: 241 % of control
dose: 20.0 mg/kg/injection, schedule: Q04DX003 (ip), vehicle: saline + alcohol
  T/C: 165 % of control
dose: 20.0 mg/kg/injection, schedule: Q04DX003 (iv), vehicle: saline + alcohol
  T/C: 291 % of control
dose: 24.0 mg/kg/injection, schedule: Q01DX001 (ip), vehicle: saline
  T/C: 230 % of control
dose: 25.0 mg/kg/injection, schedule: Q01DX005 (ip), vehicle: saline with Tween-80
  T/C: 184 % of control
dose: 25.0 mg/kg/injection, schedule: Q04DX003 (ip), vehicle: saline + alcohol
  T/C: 233 % of control
dose: 30.0 mg/kg/injection, schedule: Q01DX001 (iv), vehicle: saline + alcohol
  T/C: 352 % of control
dose: 30.0 mg/kg/injection, schedule: Q01DX009 (ip), vehicle: saline
  T/C: 110 % of control
dose: 30.0 mg/kg/injection, schedule: Q04DX002 (ip), vehicle: saline + alcohol
  T/C: 416 % of control and 441 % of control
dose: 30.0 mg/kg/injection, schedule: Q04DX003 (ip), vehicle: saline + alcohol
  T/C: 166 % of control
dose: 30.0 mg/kg/injection, schedule: Q04DX003 (ip), vehicle: saline
  T/C: 441 % of control
dose: 31.25 mg/kg/injection, schedule: Q01DX001 (ip), vehicle: saline with Tween-80
  T/C: 275 % of control
dose: 32.0 mg/kg/injection, schedule: Q01DX001 (ip), vehicle: Klucel (hydroxypropylcellulose) (HPC)
  T/C: 269 % of control
dose: 32.0 mg/kg/injection, schedule: Q01DX001 (ip), vehicle: saline with Tween-80
  T/C: 272 % of control and 588 % of control
dose: 32.0 mg/kg/injection, schedule: Q01DX001 (ip), vehicle: saline
  T/C: 606 % of control
dose: 32.0 mg/kg/injection, schedule: Q01DX001 (ip), vehicle: suspension in saline
  T/C: 289 % of control
dose: 32.0 mg/kg/injection, schedule: Q01DX001 (ip), vehicle: water
  T/C: 429 % of control
dose: 32.0 mg/kg/injection, schedule: Q01DX001 (oral), vehicle: saline with Tween-80
  T/C: 227 % of control
dose: 40.0 mg/kg/injection, schedule: Q01DX001 (ip), vehicle: Klucel (hydroxypropylcellulose) (HPC)
  T/C: 267 % of control
dose: 62.5 mg/kg/injection, schedule: Q01DX001 (ip), vehicle: saline with Tween-80
  T/C: 275 % of control and 297 % of control
dose: 64.0 mg/kg/injection, schedule: Q01DX001 (ip), vehicle: saline with Tween-80
  T/C: 107 % of control and 58 % of control
dose: 64.0 mg/kg/injection, schedule: Q01DX001 (ip), vehicle: suspension in saline
  T/C: 161 % of control
dose: 64.0 mg/kg/injection, schedule: Q01DX001 (oral), vehicle: saline with Tween-80
  T/C: 118 % of control
dose: 80.0 mg/kg/injection, schedule: Q01DX001 (ip), vehicle: Klucel (hydroxypropylcellulose) (HPC)
  T/C: 267 % of control
dose: 128.0 mg/kg/injection, schedule: Q01DX001 (ip), vehicle: Klucel (hydroxypropylcellulose) (HPC)
  T/C: 98 % of control
dose: 128.0 mg/kg/injection, schedule: Q01DX001 (ip), vehicle: saline with Tween-80
  T/C: 98 % of control and 58 % of control
dose: 128.0 mg/kg/injection, schedule: Q01DX001 (ip), vehicle: suspension in saline
  T/C: 107 % of control
